This is an account of results in patent US10940188B2, “Compounds and methods for treatment and prevention of Flavivirus infection” (priority 2016, dated 2021).

For assay [1], the system named is ZIKV-induced caspase 3/7 activity in SNB-19 cells. The assay is described as follows: Caspase 3/7 activity assay, ZIKV-infected SNB-19 cells. The class given is cell-based. The settings on record: ZIKV-infected SNB-19 cells; for IC50: read-out: Caspase 3 (IC50, uM) SNB-19; for Emax: read-out: Caspase 3 (efficacy, %) SNB-19. The protocol:
(§1) Caspase-Glo 3/7 assay kit (catalog number G8092; Promega, Madison, Wis.) was used to detect caspase 3/7 activity. Reagents were reconstituted as described in the protocol from the manufacturer. Polystyrene plates (384-well and 1536-well; regular tissue culture treated and PDL coated) were purchased from Greiner Bio-One (Monroe, N.C.). Cells were seeded in 384- and 1536-well assay plates and cultured at 37° C. with 5% CO2 for 16 hours. ZIKV solution was added to cells, followed by incubation at 37° C. with 5% CO2 for 6 hours. Caspase-Glo 3/7 was added to each well, unless otherwise specified, and incubated at room temperature for 30 minutes. The luminescence intensity of the assay plates was measured using a ViewLux plate reader (PerkinElmer). Data were normalized by using the cell-containing wells without ZIKV as a negative control (0% induction of caspase 3/7 activity) and wells containing ZIKV infected cells that induced caspase 3/7 activity were used as a positive control (100% induction of caspase 3/7 activity). […]
(§2) Caspase-Glo 3/7 assay kit (Promega) was used to detect caspase 3/7 activity. Reagents were reconstituted as described in the protocol from the manufacturer. Cells were seeded in 384- and 1536-well assay plates and cultured at 37° C. with 5% CO2 for 16 hours. ZIKV solution was added to cells, followed by incubation at 37° C. with 5% CO2 for 6 hours. Caspase-Glo 3/7 was added to each well at a 1:1 ratio, unless otherwise specified, and incubated at room temperature for 30 minutes. The luminescence intensity of the assay plates was measured using a ViewLux plate reader (PerkinElmer). Data was normalized by using the cell-containing wells without ZIKV as a negative (0% induction of caspase 3/7 activity) control and wells containing ZIKV infected cells that induced caspase 3/7 activity were used as a positive control (100% induction of caspase 3/7 activity). […]

The test system of assay [2] is ZIKV-induced caspase 3/7 activity in hNPCs. Description: Caspase 3/7 activity assay, ZIKV-infected hNPCs. The format is cell-based. As to conditions: ZIKV-infected hNPCs; for IC50: read-out: Caspase 3 (IC50, uM) NPCs; for Emax: read-out: Caspase 3 (efficacy, %) NPCs. The procedure:
Caspase-Glo 3/7 assay kit (catalog number G8092; Promega, Madison, Wis.) was used to detect caspase 3/7 activity. Reagents were reconstituted as described in the protocol from the manufacturer. Polystyrene plates (384-well and 1536-well; regular tissue culture treated and PDL coated) were purchased from Greiner Bio-One (Monroe, N.C.). Cells were seeded in 384- and 1536-well assay plates and cultured at 37° C. with 5% CO2 for 16 hours. ZIKV solution was added to cells, followed by incubation at 37° C. with 5% CO2 for 6 hours. Caspase-Glo 3/7 was added to each well, unless otherwise specified, and incubated at room temperature for 30 minutes. The luminescence intensity of the assay plates was measured using a ViewLux plate reader (PerkinElmer). Data were normalized by using the cell-containing wells without ZIKV as a negative control (0% induction of caspase 3/7 activity) and wells containing ZIKV infected cells that induced caspase 3/7 activity were used as a positive control (100% induction of caspase 3/7 activity).
Human NPCs were seeded onto PDL coated 1536-well assay plates at 250 cells per 3 μl/well and incubated at 37° C. in 5% CO2 for 16 hours. Test compounds dissolved in DMSO were transferred to assay plates at a volume of 23 nl/well by an automated pintool workstation (Wako Automation, San Diego, Calif.). Compounds were incubated with cells for 30 minutes at 37° C. in 5% CO2, immediately followed by the addition of 2 μl/well of ZIKV. Incubation time of compound-treated cells with ZIKV varied based on assay format. Experiments measuring virus-induced caspase 3/7 activity required a 6 hour incubation of ZIKV in the presence compounds at 37° C. in 5% CO2. Following this incubation, 3.5 μl/well of caspase 3/7 reagent mixture was added to assay plates. The plates were incubated for 30 minutes at room temperature, and the resultant luminescence signal was measured using a ViewLux plate reader (Perkin Elmer). Experiments measuring virus-induced cell death required a 72-hour incubation of ZIKV in the presence of compounds at 37° C. in 5% CO2. Following this incubation, 3.5 μl/well of ATP content detection reagent was added to assay plates, incubated for 30 minutes at the room temperature, and the resultant luminescence signal was measured in a ViewLux plate reader.
Caspase-Glo 3/7 assay kit (Promega) was used to detect caspase 3/7 activity. Reagents were reconstituted as described in the protocol from the manufacturer. Cells were seeded in 384- and 1536-well assay plates and cultured at 37° C. with 5% CO2 for 16 hours. ZIKV solution was added to cells, followed by incubation at 37° C. with 5% CO2 for 6 hours. Caspase-Glo 3/7 was added to each well at a 1:1 ratio, unless otherwise specified, and incubated at room temperature for 30 minutes. The luminescence intensity of the assay plates was measured using a ViewLux plate reader (PerkinElmer). Data was normalized by using the cell-containing wells without ZIKV as a negative (0% induction of caspase 3/7 activity) control and wells containing ZIKV infected cells that induced caspase 3/7 activity were used as a positive control (100% induction of caspase 3/7 activity).
Human NPCs were seeded onto PDL coated 1536-well assay plates at 250 cells per 3 μl/well and incubated at 37° C. in 5% CO2 for 16 hours. Test compounds dissolved in DMSO were transferred to assay plates at a volume of 23 nl/well by an automated pintool workstation (Wako Automation, San Diego, Calif.). Compounds were incubated with cells for 30 minutes at 37° C. in 5% CO2, immediately followed by the addition of 2 μl/well of ZIKV. Incubation time of compound-treated cells with ZIKV varied based on assay format. Experiments measuring virus induced caspase 3/7 activity required a 6 hour incubation of ZIKV in the presence compounds at 37° C. in 5% CO2. […]

In assay [3] the test system is ZIKV-induced cell death in SNB-19 cells. Description: ATP cell viability assay for ZIKV-induced cell death, SNB-19 cells. The class given is cell-based, human. The settings on record: ZIKV-infected SNB-19 cells; for IC50: read-out: Cell viability (IC50, uM) SNB-19. The procedure: (§3) The reagent was reconstituted and prepared as described by the manufacturer. In order to measure the cell death caused by ZIKV infection, cells were cultured for 16 hours at 37° C. with 5% CO2 in assay plates, followed by the addition of ZIKV solution and incubation at 37° C. with 5% CO2 for 72 hours. ATPlite, the ATP monitoring reagent, was then added to the assay plates and they were incubated for 15 minutes. The resulting luminescence was measured using the ViewLux plate reader (Perkin Elmer). Data were normalized using the wells without cells as a control for 100% cell killing, and cell-containing wells without ZIKV infection were used as full cell viability (0% cell killing). […]
as §3, with “The ATPlite luminescence assay system assay kit (PerkinElmer) was used to determine cell viability. The reagent” for “The reagent”, “by the manufacture. In order” for “by the manufacturer. In order”, “followed by addition of” for “followed by the addition of”, “plates and incubated for” for “plates and they were incubated for”, “Elmer). Data was normalized using” for “Elmer). Data were normalized using”

The test system of assay [4] is ZIKV-induced caspase 3/7 activity in human astrocytes. The assay is described as follows: Caspase 3/7 activity assay, ZIKV-infected human astrocytes. The class given is cell-based. As to conditions: ZIKV-infected human astrocytes; for IC50: read-out: Caspase 3 (IC50, uM) Astrocyte; for Emax: read-out: Caspase 3 (efficacy, %) Astrocyte. The procedure:
as §1, §2

Assay [5] has as its system ZIKV-induced cell death in human astrocytes. Description: ATP cell viability assay for ZIKV-induced cell death, human astrocytes. The format is cell-based. The settings on record: ZIKV-infected human astrocytes; for IC50: read-out: Cell viability (IC50, uM) Astrocyte.

Where a name gives a salt, the structure may show the parent alone. Read-outs that look alike come from different tables or passages of the source.

Broadly, the IC50 is the concentration that gives 50% inhibition. With `Nc1ccc(/N=N/c2ccccc2)c(N)n1` [Phenazopyridine hydrochloride], the IC50 in assay [1] (Homo sapiens) amounted to 16.4 µM; in assay [2] (Homo sapiens) it was 11.6 µM; in assay [3] (Homo sapiens) it was 27.5 µM; in assay [4] (Astrocyte) it was 15.5 µM. For the same compound, the Emax in assay [1] (Homo sapiens) is 73.7%; in assay [2] (Homo sapiens) it was 72.5%; in assay [4] (Astrocyte), 69.9%. In addition, in assay [3], the “Cell viability (efficacy, %) SNB-19” value was found to be 35.3%. In addition, the “Cell viability (efficacy, %) Astrocyte” value in assay [5] amounted to 0.0%.

As to `CN1CC[C@@]2(C)c3cc(OC(=O)Nc4ccccc4)ccc3N(C)[C@@H]12` [Phenserine], the IC50 in assay [1] (Homo sapiens) came out at 19.5 µM; in assay [2] (Homo sapiens), 25.9 µM; in assay [4] (Astrocyte), 25.9 µM. Also, the Emax was found to be 38.4% in assay [1] (Homo sapiens), 51.5% in assay [2] (Homo sapiens) and 47.4% in assay [4] (Astrocyte). Besides, the “Cell viability (efficacy, %) SNB-19” value in assay [3] was 0.0%. The “Cell viability (efficacy, %) Astrocyte” value in assay [5] turned out to be 0.0%.

As to `Clc1ccccc1-c1nc(-c2ccncc2)no1` [Pifexole], the IC50 came to 8.2 µM in assay [1] (Homo sapiens), 4.61 µM in assay [2] (Homo sapiens) and 6.9 µM in assay [4] (Astrocyte). Moreover, the results for the Emax in assay [1] (Homo sapiens), in assay [2] (Homo sapiens) and in assay [4] (Astrocyte) were 83.6%, 92.2% and 86.3%, respectively. Further, the “Cell viability (efficacy, %) SNB-19” value in assay [3] was found to be 0.0%. In addition, in assay [5], the “Cell viability (efficacy, %) Astrocyte” value is on record as 0.0%.

With `O=C(/C=C/C=C/c1ccc2c(c1)OCO2)N1CCCCC1` [Piperine], the figures for the IC50 in assay [1] (Homo sapiens), in assay [2] (Homo sapiens) and in assay [4] (Astrocyte) were 19.5 µM, 13.8 µM and 20.6 µM, respectively. For the same compound, the Emax was 75.5% in assay [1] (Homo sapiens), 66% in assay [2] (Homo sapiens) and 73.9% in assay [4] (Astrocyte). Moreover, the “Cell viability (efficacy, %) SNB-19” value in assay [3] was 0.0%. The “Cell viability (efficacy, %) Astrocyte” value in assay [5] came out at 0.0%.

Take `COc1cccc2c1C(=O)c1c(O)c3c(c(O)c1C2=O)C[C@@](O)(C(=O)CO)C[C@@H]3O[C@H]1C[C@H](N)[C@H](O[C@@H]2CCCCO2)[C@H](C)O1` [Pirarubicin]: the IC50 was found to be 20.6 µM in assay [1] (Homo sapiens) and 13.8 µM in assay [4] (Astrocyte). Further, the Emax in assay [1] (Homo sapiens) came out at 63.9%; in assay [2] (Homo sapiens), 51.5%; in assay [4] (Astrocyte) it was 59.8%. In assay [3], the “Cell viability (efficacy, %) SNB-19” value worked out at 0.0%. For the same compound, the “Cell viability (efficacy, %) Astrocyte” value in assay [5] came to 0.0%.

With `CC(C)(C)COc1ccc(-n2cc(C(=O)O)cn2)cc1C#N` [Piraxostat], in assay [1], the “Caspase 3 (efficacy, %) SNB-19” value is 63.5% and the IC50 amounted to 21.1 µM. In assay [2], the “Caspase 3 (efficacy, %) NPCs” value is 67.1% and the IC50 was determined as 15.8 µM. In assay [3], the “Cell viability (efficacy, %) SNB-19” value came to 60.3% and the IC50 amounted to 5.01 µM. Besides, in assay [4], the “Caspase 3 (efficacy, %) Astrocyte” value turned out to be 70.5% and the IC50 was 8.91 µM. Also, in assay [5], the “Cell viability (efficacy, %) Astrocyte” value was determined as 34.7% and the IC50 turned out to be 63.1 µM.

Turning to `OCc1ccc(-c2ccc(-c3ccc(CO)s3)o2)s1` [RITA], in assay [1], the “Caspase 3 (efficacy, %) SNB-19” value was 101% and the IC50 amounted to 0.22 µM. In assay [2], the “Caspase 3 (efficacy, %) NPCs” value is given as 50.9% and the IC50 was 14.6 µM. Besides, the “Cell viability (efficacy, %) SNB-19” value in assay [3] is 0.0%. In assay [4], the “Caspase 3 (efficacy, %) Astrocyte” value was 41.2% and the IC50 was found to be 27.5 µM. In assay [5], the “Cell viability (efficacy, %) Astrocyte” value was determined as 81.7% and the 50% inhibitory concentration (IC50) turned out to be 5.81 µM.

With `O=c1c2ccccc2nc2n1CCc1c-2[nH]c2ccccc12` [Rutaecarpine], the IC50 was found to be 5.18 µM in assay [1] (Homo sapiens), 4.61 µM in assay [2] (Homo sapiens) and 4.89 µM in assay [4] (Astrocyte). The Emax worked out at 86.4% in assay [1] (Homo sapiens), 87.5% in assay [2] (Homo sapiens) and 89.5% in assay [4] (Astrocyte). In addition, the “Cell viability (efficacy, %) SNB-19” value in assay [3] came to 0.0%. Also, the “Cell viability (efficacy, %) Astrocyte” value in assay [5] amounted to 0.0%.

As to `COc1cccc(NC(=O)/C=C/c2ccc(Cl)cc2)c1` [SB-366791], in assay [1], the “Caspase 3 (efficacy, %) SNB-19” value is given as 93.3% and the IC50 was 3.66 µM. In assay [2], the “Caspase 3 (efficacy, %) NPCs” value is reported as 89.9% and the IC50 is 2.91 µM. In assay [3], the “Cell viability (efficacy, %) SNB-19” value is recorded as 0.0%. Also, in assay [4], the “Caspase 3 (efficacy, %) Astrocyte” value amounted to 93.9% and the IC50 was found to be 4.11 µM. Further, in assay [5], the “Cell viability (efficacy, %) Astrocyte” value was determined as 0.0%.

On to `O=C(Nc1ncc([N+](=O)[O-])s1)c1cccs1` [Tenonitrozole], for which the values for the IC50 in assay [1] (Homo sapiens), in assay [2] (Homo sapiens) and in assay [4] (Astrocyte) were 1.95 µM, 1.3 µM and 2.06 µM, respectively. For the same compound, the Emax in assay [1] (Homo sapiens) turned out to be 81.7%; in assay [2] (Homo sapiens), 81.5%; in assay [4] (Astrocyte), 88.8%. For the same compound, in assay [3], the “Cell viability (efficacy, %) SNB-19” value worked out at 0.0%. For the same compound, the “Cell viability (efficacy, %) Astrocyte” value in assay [5] is reported as 0.0%.
